The text below walks through data of patent US20260356901A1, “ONCOLYTIC PEPTIDES” (The Johns Hopkins University, priority 2023, published 2026).

Like-named read-outs stand apart in the source and are kept apart here. Square brackets hold non-standard residues; d marks the D form. Ends that are not written are not given here. Peptide text beside a SMILES is read from it. * marks the point of attachment. Dip = N[C@H](C(=O)O)C(c1ccccc1)c1ccccc1; Cbz = O=C(OCc1ccccc1)*; CH2F = FC*

The test system of one data set is healthy cells. The experiment in a line: LDH assay against cancer cells not included in NCI-60 and healthy cells. The data set is classed as cell-based. Here is the method: LDH assay 1.5×10^4 cells were seeded in a 96 well plate and incubated overnight. The cells were washed once, and the medium was replaced with serum free media. Cells were treated for the indicated time and concentration. CyQUANT LDH cytotoxicity assay (Invitrogen, Carlsbad, CA) was used following the manufacturer's instructions.

For data set [1] the following is noted: other reported oncolytic peptides; cited from earlier work.
For the next data set, the system named is 4T1 cells. In words: LDH release assay (CyQUANT) in 4T1 cells. The data set is classed as cell-based, murine. The following applies: pre-treated 50 μM inhibitor 30 minutes, then 100 μM CKS1 6 hours. How it is done:
FIG. 3A is a graph of cell viability of 4T1 murine triple negative breast cancer cells (TNBC) after 100 μM or 20 μM CKS1 treatment measured by real-time cell analyzer (RTCA). Means±SEM, representative of N=3. FIG. 3B is a graph of lactate dehydrogenase (LDH) release in 4T1 cells pre-treated with 50 μM pan-caspase inhibitor Z-VAD for 30 minutes or 50 μM RIPK1 inhibitor Nec-1s for 30 minutes then treated with 100 μM CKS1 for 6 hours. LDH release in the supernatant was measured by the CyQUANT LDH cytotoxicity assay. Means±SEM, N=3, Dunnett's test (***p<0.005). […] The release of LDH in the supernatant was measured and was normalized to the amount of LDH released from cells treated with lysis buffer. […]
FIG. 5A is a graph of the release of LDH in the supernatant measured after treating 4T1 cells with 100 μM of the indicated peptides for 6 hours. […]
To determine whether CKS1 functions as an oncolytic peptide, the cell viability of 4T1 murine breast cancer cells was observed after CKS1 treatment using xCELLigence Real-Time Cell Analyzer (Agilent). In this method, the binding of cells to gold electrodes is detected as electrical impedance and graphed as arbitrary units of cell index in real time. […] The release of lactate dehydrogenase (LDH) was also quantified in the culture media after CKS1 treatment. […]
A general note: LDH leaks from cells whose membrane has failed.

The next data set in a line: Solubility in water. The conditions noted are these: data not shown. The data set is classed as physicochemical. The text has this: Peptides The peptides were synthesized by Genscript (Piscataway, NJ) using a solid-phase peptide synthesis technique. The purity was >90% as verified by HPLC and MS analyses. The peptides were solubilized in water.
The next data set concerns MCA205 cells. The experiment in a line: LDH release assay in MCA205 cells. The following applies: MCA205, 6 hours. The class given is cell-based, murine. Here is the method: (§1) FIG. 3A is a graph of cell viability of 4T1 murine triple negative breast cancer cells (TNBC) after 100 μM or 20 μM CKS1 treatment measured by real-time cell analyzer (RTCA). Means±SEM, representative of N=3. FIG. 3B is a graph of lactate dehydrogenase (LDH) release in 4T1 cells pre-treated with 50 μM pan-caspase inhibitor Z-VAD for 30 minutes or 50 μM RIPK1 inhibitor Nec-1s for 30 minutes then treated with 100 μM CKS1 for 6 hours. LDH release in the supernatant was measured by the CyQUANT LDH cytotoxicity assay. Means±SEM, N=3, Dunnett's test (***p<0.005). FIGS. 3C-3G are graphs of LDH release in human osteosarcoma U2OS cells, murine fibrosarcoma MCA205 cells, murine colon carcinoma CT26 cells, murine normal NIH/3T3 fibroblasts, and HUVECs, respectively, treated with the indicated concentration of CKS1 for 6 hours. The release of LDH in the supernatant was measured and was normalized to the amount of LDH released from cells treated with lysis buffer. Means±SEM, N=3, Dunnett's test (**p<0.01, ***p<0.005). FIG. 3H is a graph of the incorporation of BrdU in HUVECs treated with CKS1. Means±SEM, N=3, Dunnett's test (**p<0.01, ***p<0.005).
(§2) LDH assay 1.5×10^4 cells were seeded in a 96 well plate and incubated overnight. The cells were washed once, and the medium was replaced with serum free media. Cells were treated for the indicated time and concentration. […]

The test system of the next data set is CT26 cells. In words: LDH release assay in CT26 cells. The data set is classed as cell-based, murine. The following applies: CT26, 6 hours. Here is the method: as §1, §2
The next data set deals with HUVECs. The experiment in a line: LDH release assay in HUVECs. The data set is classed as cell-based, human. The conditions noted are these: 6 hours. Here is the method: as §1, §2
A further data set concerns U2OS cells. In words: LDH release assay in U2OS cells. The data set is classed as cell-based, human. The conditions noted are these: 6 hours. How it is done: as §1, §2
In data set [2] the test system is NIH/3T3 normal fibroblasts. In words: LDH release assay in NIH/3T3 cells. The data set is classed as cell-based, murine. The following applies: 6 hours. Here is the method: as §1, §2

NGRKAKLNPASIVKKIIKKILKS [NF27]: in the data set with healthy cells, the “toxicity against healthy cells compared to cancer cells” value is listed as “significantly lower toxicity”. For the compound `NCCCC[C@H](NC(=O)[C@@H](NC(=O)[C@H](Cc1c[nH]c2ccccc12)NC(=O)[C@H](CCCCN)NC(=O)[C@H](CCCCN)NC(=O)[C@H](Cc1c[nH]c2ccccc12)NC(=O)[C@H](Cc1c[nH]c2ccccc12)NC(=O)[C@H](CCCCN)NC(=O)[C@@H](N)CCCCN)C(c1ccccc1)c1ccccc1)C(N)=O` [LTX-315] (H-KKWWKKW[Dip]K-NH2), the solubility in water result in data set [1] is reported as “not soluble in water”. For the compound `CC(NC(=O)C(NC(=O)OCc1ccccc1)C(C)C)C(=O)NC(CC(=O)O)C(=O)CF` (stereo not drawn) [Z-VAD] (Cbz-Val-Ala-Asp-CH2F; configuration not given here), in the data set with 4T1 cells, the “inhibition of CKS1-induced LDH release by pretreatment” value is recorded as “did not inhibit the release of LDH”. In the case of “IVKKIIEKMLNS [SEQ ID NO: 42, IVKKIIEKMLNS]”, the solubility in water entry in “Solubility in water” is “not soluble in water”.

Regarding `CN1C(=O)NC(Cc2c[nH]c3c(Cl)cccc23)C1=O` (centres unmarked) [Nec-1s, necrostatin-1 stable], the “inhibition of CKS1-induced LDH release by pretreatment” value with 4T1 cells is “did not inhibit the release of LDH”. On to NGRKACLNPASPIVKKIIEKMLNS [CKS1], for which the solubility in water entry in “Solubility in water” was “high solubility in water”. In addition, the “cytotoxicity (LDH release)” value with MCA205 cells, in the data set with CT26 cells and in the data set with U2OS cells was “effective” throughout. Further, the “cell death (LDH release) in normal cells” value (in the data set on HUVECs; in [2]) was “did not induce cell death” throughout.
